The structures appear in SMILES notation.

Here are results for 7 compounds from patent publication EP0114002B1, “Benzothiopyrano(4,3,2,-cd)indazoles, their pharmaceutical compositions and methods for their production” (WARNER-LAMBERT COMPANY, priority 1983, dated 1984).

Assay [1] relates to L1210 cells. Kind of assay: L1210 murine leukemia cell growth inhibition in vitro. Format: cell-based. The note with it: Mus musculus, 72 h, Table 1, three days incubation, 50% inhibition of growth, read-out: L1210 in vitro ID50. On the procedure: Another test protocol uses L1210 cells, a murine leukemia cell line, grown in RPMI 1640 supplemented with 5% fetal bovine serum and gentamicin ([…]). Drug dilutions are prepared in the appropriate solvent and 20 µl of each dilution are added to 24-well Linbro tissue culture plates, followed by the addition of 2.0 ml of cell suspension containing 3 x 10^4 cells per ml. Solvent and medium controls are included in each test. After incubation at 37°C forthree days in 5% C02, the contents of each well are removed and the cells counted in a ZBI Coulter counter. Percent growth are calculated relative to the controls and the levels of drug activity are expressed as ID50 in moles per liter.

Assay [2] has as its system HCT-8 cells. Kind of assay: in vitro proliferating human colon adenocarcinoma (HCA) cell screen. In kind it is cell-based. The note with it: Table 1, 60 to 65 hours with compound, 50% inhibition of growth, read-out: HCA—3 in vitro ID50. The protocol:
One test protocol is the in vitro proliferating human colon adenocarcinoma (HCA) cell screen. In this test, HCT-8 cells (HCA cell line received from Yale University) are trypsinized using trypsin-EDTA. A single cell suspension is achieved by passing the cells through a 26 gauge needle with a 20 cc syringe. A cell suspension is prepared using RPMI 1640 + 10% FCS + 50) g/ml gentamicin sulfate with a cell concentration of approximately 30,000 cells/ml. The cell suspension is dispensed in Linbro 24-well plates; 1 ml/well. The plates are incubated for approximately 48 hours at 37°C in a 5% C02 atmosphere. At this time test compounds are added in the appropriate concentration. Five µl of the 200 µg/ml stock solution is added to each well in primary test. Ten µl of the appropirate dilution is added to each well for a titration test. The plates are re-incubated an additional 60 to 65 hours at 37°C in a 5% C02 atmosphere. The cells are lysed using a mix of cationic surfactant, glacial acetic acid, and sodium chloride. Two ml of the lysed cell suspension from each well is added to 8 ml of diluent. The number of nuclei is determined using a Coulter counter (ZBI model), and a percent growth for each drug concentration is calculated. From this, an ID50 molar concentration of a compound (that results in 50% inhibition of growth) is determined.

For assay [3], the system named is lymphocytic leukemia P388. Kind of assay: in vivo lymphocytic leukemia P388 test. Also noted: species or system mice. The note with it: for response vs control in vivo at 50 mg/kg: Dose 50.00 mg/kg intraperitoneally once daily for five days; for response vs control in vivo at 25 mg/kg: Dose 25.00 mg/kg intraperitoneally once daily for five days; for response vs control in vivo at 12.5 mg/kg: Dose 12.50 mg/kg intraperitoneally once daily for five days; for P388 in vivo Cures: remark printed beside T/C × 100; for response vs control in vivo at 3.12 mg/kg: Dose 3.12 mg/kg intraperitoneally once daily for five days; for response vs control in vivo at 6.25 mg/kg: Dose 6.25 mg/kg intraperitoneally once daily for five days. The protocol: Another test protocol is the in vivo lymphocytic leukemia P388 test. The animals used are either male or female CD2F, mice. There are six or seven animals per test group. The tumor transplant is by intraperitoneal injection of dilute ascitic fluid containing cells of lymphocytic leukemia P388. The test compounds are administered intraperitoneally once daily for five consecutive days at various doses following tumor inoculation. The animals are weighed and survivors are recorded on a regular basis for 30 days. A compound is designated "toxic" if, at a given dose, all animals died prior to four days after the first injection of drug. A ratio of survival time for treated (T)/control (C) animals is calculated. A criterion for efficacy is a ratio T/C times 100 greater than or equal to 125. See Cancer Chemotherapy Reports, Part 3, 3; 1 (1972) for a comprehensive discussion of the protocol.

Assay [4] relates to Aerobacter aerogenes 0126. Kind of assay: in vitro antibacterial/antifungal (ABF) agar-disk diffusion test. The note with it: Klebsiella aerogenes, read-out: ABF Zone Diameter (cont. in mg/ml) A. Aero-genes; for zone of inhibition at 500 µg/mL: 0.5 mg/ml; for zone of inhibition at 3000 µg/mL: 3 mg/ml. Format: cell-based. The protocol:
(§1) Still another test protocol is the in vitro antibacterial/antifungal (ABF) test. Compounds are tested for antimicrobial activity in an agar-disk diffusion assay, a standard microbiological technique for testing antibiotics'. After incubation of each culture with a test compound, a zone of inhibition is determined. The zone diameter (mm) of active compounds ranges from a minimum of 13.5 mm to as high as 60 mm, with a greater diameter reflecting higher activity. For convenience, values are reported for two gram-negative bacteria (Aerobacter aerogenes 0126 and Escherichia coli 04863), two gram-positive bacteria (Bacillus subtilis 04555 and Streptococcus faecalis 05045 utilizing AM-09 medium), and one mycelial fungus (Penicillium avellaneum M2988).
Background: In agar diffusion tests the substance spreads into inoculated agar from a disc or well.

Assay [5] concerns Bacillus subtilis 04555. Described as above. In kind it is cell-based. The note with it: read-out: ABF Zone Diameter (cont. in mg/ml) B. Sub-tilis; for zone of inhibition at 3000 µg/mL: 3 mg/ml; for zone of inhibition at 500 µg/mL: 0.5 mg/ml. The protocol:
as §1

Assay [6] concerns Escherichia coli 04863. The assay is described as above. Format: cell-based. The note with it: read-out: ABF Zone Diameter (cont. in mg/ml) E. Coli; for zone of inhibition at 3000 µg/mL: 3 mg/ml. The protocol:
as §1

Assay [7] has as its system Penicillium avellaneum M2988. Described as above. Format: cell-based. The following applies: Hamigera avellanea, read-out: ABF Zone Diameter (cont. in mg/ml) P. Avell-aneum; for zone of inhibition at 3000 µg/mL: 3 mg/ml. The protocol: as §1
In assay [8] the test system is Streptococcus faecalis 05045. The description is as above. The note with it: Enterococcus faecalis, AM-09 medium, read-out: ABF Zone Diameter (cont. in mg/ml) S. Fae-calis; for zone of inhibition at 3000 µg/mL: 3 mg/ml; for zone of inhibition at 1000 µg/mL: 1 mg/ml. In kind it is cell-based. The protocol: as §1
Setting [9] is: Mus musculus, P388, ip, 120 h, read-out: P388 in vivo T/C × 100.

In the case of `CN(C)CCCn1nc2c3c(c(N)ccc31)Sc1ccccc1-2` [CH2CH2CH2N(CH3)2 / NH2], the IC50 in assay [1] turned out to be 2000 nM; in assay [2], 1800 nM. For the same compound, in assay [3] (setting [9]), the response vs control in vivo at 50 mg/kg worked out at 121%. Also, the response vs control in vivo at 100 mg/kg in assay [3] (Mus musculus, P388, ip, 120 h, Dose 100.00 mg/kg intraperitoneally once daily for five days, read-out: P388 in vivo T/C × 100) amounted to 182%. Further, the response vs control in vivo at 200 mg/kg in assay [3] (Mus musculus, P388, ip, 120 h, Dose 200.00 mg/kg intraperitoneally once daily for five days, survival time treated/control, read-out: P388 in vivo T/C × 100) came to 169%. Also, the zone of inhibition at 500 µg/mL in assay [4] was found to be 16 mm. Besides, the zone of inhibition at 3000 µg/mL in assay [5] came out at 0 mm; in assay [6] it was 15 mm; in assay [7] it was 16 mm; in assay [8] it was 15 mm.
Consider `CCN(CC)CCn1nc2c3c(c(N=CN(C)C)ccc31)Sc1ccccc1-2` [CH2CH2N(C2H5)2 / N=CHN(CH3)2, N'-[2-(2-(Diethylamino)ethyl]-2H[1]benzothiopyrano[4,3,2-cd]indazol-5-yl]-N,N-dimethyl-methanimidamide], for which the IC50 came to 100 nM in assay [1] and 240 nM in assay [2]. Further, the response vs control in vivo at 25 mg/kg in assay [3] (setting [9]) turned out to be 145%. Further, in assay [3] (setting [9]), the response vs control in vivo at 50 mg/kg was found to be 206%. Besides, the zone of inhibition at 3000 µg/mL was found to be 0 mm in assay [4], 0 mm in assay [6], 16 mm in assay [7] and 0 mm in assay [8]. Moreover, the zone of inhibition at 1000 µg/mL in assay [5] (1 mg/ml) stood at 16 mm.
Take `CCN(CC)CCn1nc2c3c(c(N)ccc31)Sc1ccccc1-2` [CH2CH2N(C2H5)2 / NH2, 5-Amino-N,N-diethyl-2H[1]benzothiopyrano[4,3,2-cd]indazole-2-ethanamine]: the figures for the IC50 in assay [1] and in assay [2] were 130 nM and 1100 nM, respectively. Moreover, the response vs control in vivo at 12.5 mg/kg in assay [3] (setting [9]) came to 144%. For the same compound, in assay [3] (setting [9]), the response vs control in vivo at 25 mg/kg came out at 162%. The zone of inhibition at 3000 µg/mL in assay [4], in assay [5] and in assay [6] was 0 mm throughout. Further, the zone of inhibition at 1000 µg/mL in assay [7] (1 mg/ml) and in assay [8] was 14 mm each time.
For the compound `CCN(CC)CCNc1ccc2c3c(nn2CCN(CC)CC)-c2ccccc2Sc13` [CH2CH2N(C2H5)2 / NHCH2CH2N(C2H5)2, 5-[[2-(Diethylamino)ethyl]amino]-N,N-diethyl-2H[1]-benzothiopyrano[4,3,2-cd]indazofe-2-ethanamine], the IC50 turned out to be 140 nM in assay [1] and 450 nM in assay [2]. The response vs control in vivo at 25 mg/kg in assay [3] (setting [9]) was 155%. Also, the zone of inhibition at 500 µg/mL in assay [4] was 14 mm. The zone of inhibition at 100 µg/mL was 15 mm in assay [5] (0.1 mg/ml) and 18 mm in assay [6] (0.1 mg/ml). The zone of inhibition at 3000 µg/mL in assay [7] was found to be 17 mm; in assay [8], 15 mm.
Take `CCN(CC)CCn1nc2c3c(c(NCCN)ccc31)Sc1ccccc1-2` [CH2CH2N(C2H5)2 / NHCH2CH2NH2, N-[2-[2-(Diethylamino)ethyl]-2H[1]benzothiopyrano[4,3,2-cd]indazol-5-yl]-1,2-ethanediamine]: the values for the IC50 in assay [1] and in assay [2] were 46 nM and 97 nM, respectively. Besides, the “P388 in vivo Cures” value in assay [3] (Dose 12.50 mg/kg) and in assay [3] (Dose 25.00 mg/kg) was “Cures” throughout. Besides, the response vs control in vivo at 3.12 mg/kg in assay [3] (setting [9]) worked out at 178%. In assay [3] (setting [9]), the response vs control in vivo at 6.25 mg/kg came out at 215%. Also, the response vs control in vivo at 12.5 mg/kg in assay [3] (setting [9]) was 297%. In addition, the response vs control in vivo at 25 mg/kg in assay [3] (setting [9]) stood at 148%. For the same compound, the zone of inhibition at 500 µg/mL in assay [4] worked out at 19 mm; in assay [5], 20 mm. In addition, the zone of inhibition at 3000 µg/mL in assay [6] and in assay [7] was 0 mm each time. Also, the zone of inhibition at 1000 µg/mL in assay [8] is 15 mm.
On to `CCN(CC)CCn1nc2c3c(c(NCCNCCO)ccc31)Sc1ccccc1-2` [CH2CH2N(C2H5)2 / NHCH2CH2NHCH2CH2OH, 2-[[2-[[2-[2-(Diethylamino)ethyl]-2H[1]benzothiopyrano[4,3,2-cd]indazol-5-yl]amino]ethyl]amino]ethanol], for which the values for the IC50 in assay [1] and in assay [2] were 82 nM and 200 nM, respectively. Besides, the response vs control in vivo at 3.12 mg/kg in assay [3] (setting [9]) stood at 209%. In assay [3] (setting [9]), the response vs control in vivo at 6.25 mg/kg was determined as 219%. Also, in assay [3] (setting [9]), the response vs control in vivo at 12.5 mg/kg was found to be 280%. The zone of inhibition at 100 µg/mL in assay [4] (0.1 mg/ml) turned out to be 15 mm. For the same compound, the zone of inhibition at 500 µg/mL in assay [5] turned out to be 18 mm; in assay [6] (0.5 mg/ml), 26 mm; in assay [8] (0.5 mg/ml), 16 mm. The zone of inhibition at 3000 µg/mL in assay [7] was found to be 0 mm.
With `CCN(CC)CCn1nc2c3c(c(NC(C)=O)ccc31)Sc1ccccc1-2` [CH2CH2N(C2H5)2 / NHCOCH3, N-[2-[2-(Diethylamino)ethyl]-2H-[1]benzothiopyrano[4,3,2-cd]indazol-5-yl]acetamide], the values for the IC50 in assay [1] and in assay [2] were 240 nM and 600 nM, respectively. The response vs control in vivo at 12.5 mg/kg in assay [3] (setting [9]) is 170%. Moreover, the zone of inhibition at 3000 µg/mL in assay [4] was found to be 16 mm; in assay [6] it was 16 mm; in assay [7], 0 mm; in assay [8] it was 15 mm. For the same compound, the zone of inhibition at 500 µg/mL in assay [5] amounted to 16 mm.
